Active and inactive are the calls of the source. The rule behind the calls is not given here.
Experiments:
Beta-secretase 1 [1] = target: T1, Beta-secretase 1 (Homo sapiens, UniProt P56817); assay: Inhibition of human recombinant BACE1 at 0.2 uM by FRET assay
Beta-secretase 1 [2] = target: T1, Beta-secretase 1; assay: Inhibition of human recombinant BACE1 at 2 uM by FRET assay
Beta-secretase 1 [3] = target: T1, Beta-secretase 1
Description: (§1) Inhibition of human recombinant BACE1 by FRET assay

Beta-secretase 1 [4] = target: T1, Beta-secretase 1; remark: listed apart in the source
Description: as §1

T1 sequence (P56817 whole entry): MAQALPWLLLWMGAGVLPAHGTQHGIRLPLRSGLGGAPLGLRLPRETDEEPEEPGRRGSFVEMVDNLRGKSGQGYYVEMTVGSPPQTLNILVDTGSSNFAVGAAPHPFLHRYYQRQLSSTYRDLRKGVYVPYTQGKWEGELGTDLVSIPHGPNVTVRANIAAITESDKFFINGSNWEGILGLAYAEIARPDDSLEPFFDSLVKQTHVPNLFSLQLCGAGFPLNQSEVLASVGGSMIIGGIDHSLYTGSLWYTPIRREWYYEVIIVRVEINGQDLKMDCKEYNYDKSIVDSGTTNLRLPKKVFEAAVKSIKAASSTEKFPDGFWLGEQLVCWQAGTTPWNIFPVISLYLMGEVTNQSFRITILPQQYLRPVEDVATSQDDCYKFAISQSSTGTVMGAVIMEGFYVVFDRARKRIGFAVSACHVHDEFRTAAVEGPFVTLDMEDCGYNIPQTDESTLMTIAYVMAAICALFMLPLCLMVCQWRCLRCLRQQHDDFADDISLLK

Compound | inhibition (Beta-secretase 1 [2]) [%] | also measured
O=C(N[C@@H](Cc1ccccc1)[C@H](O)C(=O)Nc1cccc(-c2nnn[nH]2)c1)c1cc(O)cc(C(=O)N2COC[C@@H]2c2ccccc2)n1 |  | IC50 (Beta-secretase 1 [3]): 360 nM
CCCN(CCC)C(=O)c1cccc(C(=O)N[C@@H](Cc2ccccc2)[C@@H](O)C(=O)Nc2cccc(C(=O)O)c2)n1 |  | Activity (Beta-secretase 1 [4]): inactive
C[C@@H](NC(=O)c1cc(=O)cc(C(=O)N[C@@H](Cc2ccccc2)[C@H](O)C(=O)Nc2cccc(-c3nn[nH]n3)c2)[nH]1)c1ccccc1 | 51 | 
O=C(N[C@@H](Cc1ccccc1)[C@H](O)C(=O)Nc1cccc(-c2nnn[nH]2)c1)c1cccc(C(=O)N2COC[C@@H]2c2ccccc2)n1 |  | IC50 (Beta-secretase 1 [3]): 140 nM
CS(=O)(=O)Oc1cc(C(=O)N[C@@H](Cc2ccccc2)[C@H](O)C(=O)Nc2cccc(-c3nnn[nH]3)c2)nc(C(=O)N2COC[C@@H]2c2ccccc2)c1 |  | IC50 (Beta-secretase 1 [3]): 96 nM
CC(C)(NC(=O)c1cccc(C(=O)N[C@@H](Cc2ccccc2)[C@H](O)C(=O)Nc2cccc(-c3nn[nH]n3)c2)n1)c1ccccc1 | 69 | 
C[C@@H](NC(=O)c1cc(=O)cc(C(=O)N[C@@H](Cc2ccccc2)[C@H](O)C(=O)Nc2cccc(-c3nn[nH]n3)c2)o1)c1ccccc1 | 70 | 
CC(C)(NC(=O)c1cc(=O)cc(C(=O)N[C@@H](Cc2ccccc2)[C@H](O)C(=O)Nc2cccc(-c3nn[nH]n3)c2)o1)c1ccccc1 | 81 | 
C[C@@H](NC(=O)c1cccc(C(=O)N[C@@H](Cc2ccccc2)[C@H](O)C(=O)Nc2cccc(-c3nn[nH]n3)c2)n1)c1ccccc1 | 66 | 
CC(C)(NC(=O)c1cc(=O)cc(C(=O)N[C@@H](Cc2ccccc2)[C@H](O)C(=O)Nc2cccc(-c3nn[nH]n3)c2)[nH]1)c1ccccc1 | 65 | 

Second part, led by results:

inhibition (Beta-secretase 1 [2]) [%] | Compound | also measured
83 | O=C(N[C@@H](Cc1ccccc1)[C@H](O)C(=O)Nc1cccc(-c2nn[nH]n2)c1)c1cc(=O)cc(C(=O)N2COC[C@@H]2c2ccccc2)[nH]1 | inhibition (Beta-secretase 1 [1]): 36%
96 | O=C(N[C@@H](Cc1ccccc1)[C@H](O)C(=O)Nc1cccc(-c2nn[nH]n2)c1)c1cc(=O)cc(C(=O)N2COC[C@@H]2c2ccccc2)o1 | inhibition (Beta-secretase 1 [1]): 78%; IC50 (Beta-secretase 1 [3]): 50 nM
84 | CC(C)(NC(=O)c1cc(OS(C)(=O)=O)cc(C(=O)N[C@@H](Cc2ccccc2)[C@H](O)C(=O)Nc2cccc(-c3nn[nH]n3)c2)n1)c1ccccc1 | 
93 | O=C(N[C@@H](Cc1ccccc1)[C@H](O)C(=O)Nc1cccc(-c2nn[nH]n2)c1)c1cccc(C(=O)N2COC[C@@H]2c2ccccc2)n1 | inhibition (Beta-secretase 1 [1]): 63%
96 | CS(=O)(=O)Oc1cc(C(=O)N[C@@H](Cc2ccccc2)[C@H](O)C(=O)Nc2cccc(-c3nn[nH]n3)c2)nc(C(=O)N2COC[C@@H]2c2ccccc2)c1 | inhibition (Beta-secretase 1 [1]): 73%

— ChEMBL document CHEMBL1141518, “Novel non-peptidic and small-sized BACE1 inhibitors” (Bioorg Med Chem Lett, 2008)
